Experimental data taken from patent US7009088B1, “Methods of modulating auxin production in plants” (priority 2000, dated 2006).

Legend:
CYP83B1 [1] = target: T1, CYP83B1 (Arabidopsis thaliana, UniProt O65782); test: CYP83B1 catalysis of [5-3H]indole-3-acetaldoxime metabolism in yeast microsomes
T1 sequence (O65782 1-499): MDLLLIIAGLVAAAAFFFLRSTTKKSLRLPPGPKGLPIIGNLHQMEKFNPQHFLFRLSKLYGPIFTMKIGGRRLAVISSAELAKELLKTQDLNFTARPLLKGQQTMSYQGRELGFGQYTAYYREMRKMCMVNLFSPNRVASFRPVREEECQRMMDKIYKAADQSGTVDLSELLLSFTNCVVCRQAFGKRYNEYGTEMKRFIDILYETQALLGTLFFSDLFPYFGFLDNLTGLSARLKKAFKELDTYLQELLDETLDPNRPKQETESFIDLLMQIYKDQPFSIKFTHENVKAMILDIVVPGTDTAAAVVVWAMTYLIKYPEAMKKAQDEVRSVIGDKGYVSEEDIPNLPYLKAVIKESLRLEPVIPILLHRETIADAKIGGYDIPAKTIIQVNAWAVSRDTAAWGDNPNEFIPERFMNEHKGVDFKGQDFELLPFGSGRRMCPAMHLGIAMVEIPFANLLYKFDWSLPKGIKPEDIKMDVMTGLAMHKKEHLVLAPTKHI
Protocol: (§1) FIG. 3. (A) Analysis of CYP83B1 by optical difference spectroscopy. […] After incubation for 10 min at 28° C. reaction mixtures were extracted with ethylacetate and analyzed by TLC. (s) substrate, (p) product.
After incubation, reaction mixtures were stopped by adding SDS to 0.4% and were analyzed by thin layer chromatography (TLC). TLC plates were developed in chloroform/methanol/water (85:14:1) and radioactive bands visualized by autoradiography.
Reactions were stopped and extracted with ethylacetate. Aliquots of the substrate-containing ethylacetate phase and product-containing water phase were subjected to liquid scintillation counting.

CYP83B1 [2] = target: T1, CYP83B1; test: Optical difference (binding) spectroscopy of yeast microsomes containing CYP83B1
Protocol: as §1

NIT2 = target: T2, NIT2 (Arabidopsis thaliana, UniProt P32962); details: cited from earlier work
T2 sequence (P32962 1-339): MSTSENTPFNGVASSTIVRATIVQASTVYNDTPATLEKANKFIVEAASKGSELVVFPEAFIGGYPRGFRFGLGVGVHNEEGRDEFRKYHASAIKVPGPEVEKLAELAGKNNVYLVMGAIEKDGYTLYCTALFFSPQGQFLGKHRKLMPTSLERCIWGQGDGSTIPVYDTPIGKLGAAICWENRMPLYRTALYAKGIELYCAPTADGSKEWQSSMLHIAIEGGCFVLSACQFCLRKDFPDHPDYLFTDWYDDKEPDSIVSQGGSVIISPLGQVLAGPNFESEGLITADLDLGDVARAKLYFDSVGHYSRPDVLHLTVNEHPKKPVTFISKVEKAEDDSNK

Arabidopsis seedlings = test: Seedling growth on media supplemented with IAN (auxin phenotype); type: in vivo
Text: Four nitrilases, differentially expressed during development and in response to environmental cues, catalyze hydrolysis of IAN to IAA in Arabidopsis (Bartel and Fink (1994) Proc. Natl. Acad. Sci. USA 91:6649–6653). The nitl mutant is insensitive to the auxin effects of exogenously applied […] at the seedling stage (Normanly et al. (1997) Plant Cell 9:1781–1790). In accordance with the observed insensitivity of nit1 seedlings to IAN, NIT1 is most strongly expressed in the hypocotyl near the junction with the root in young seedlings as well as in the cotyledons. In contrast, NIT2 and NIT3 are expressed primarily in the cotyledons and NIT4 is expressed in the root tip (Bartel and Fink (1994) Proc. Natl. Acad. Sci. USA 91:6649–6653).

NIT1 = target: T3, NIT1 (Arabidopsis thaliana, UniProt P32961); details: cited from earlier work
T3 sequence (P32961 1-346): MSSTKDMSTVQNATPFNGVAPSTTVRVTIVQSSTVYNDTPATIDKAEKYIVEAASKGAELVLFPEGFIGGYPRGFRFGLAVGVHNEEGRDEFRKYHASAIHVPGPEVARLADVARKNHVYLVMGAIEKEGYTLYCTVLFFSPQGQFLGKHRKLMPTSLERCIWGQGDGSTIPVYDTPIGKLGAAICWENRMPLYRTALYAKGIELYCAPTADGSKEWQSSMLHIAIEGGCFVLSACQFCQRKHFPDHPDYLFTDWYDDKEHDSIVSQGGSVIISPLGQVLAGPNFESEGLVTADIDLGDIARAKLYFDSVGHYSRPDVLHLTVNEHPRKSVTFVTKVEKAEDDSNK

wild type seedlings = test: Indole glucosinolate levels in seedlings grown on MS agar, quantified as SCN; type: in vivo, Arabidopsis; details: wild type seedlings germinated on MS media with 100 μM compound, two week old, versus wild type
Protocol: FIG. 6. Indole glucosinolate levels are affected by CYP83B1 expression. Indole glucosinolates in individual two week old seedlings grown on MS agar were quantified calorimetrically as SCN. 1) Wild type, 2) rnt1-1, 3) molecularly complemented line 3.25.11, 4) overexpression line 1.4.7, and 5) wild type grown on 100 μM tryptamine. Data are represented as the mean±S.E, (n=10 seedlings). Except for the molecularly complemented line 3.25.11, mean indole glucosinolate values all differ from wild type seedling values at a 1% confidence value (t-test).
Tryptophan-derived indole-3-acetaldoxime is also an intermediate in the biosynthesis of indole glucosinolates.

SMILES | turnover (CYP83B1 [1]; in the presence of cysteine, 2.2 nM CYP83B1, 1 min at 28° C.) [min⁻¹] | Km (CYP83B1 [1]; read-out: Michaelis-Menten constant Km, in the presence of cysteine, 2.2 nM CYP83B1, 1 min at 28° C.) [µM] | Kd (CYP83B1 [2]) [µM] | Km for IAN hydrolysis (NIT2) | effect on germination / IAA phenotype (Arabidopsis seedlings; rnt1-1 seedlings on 50 μM) | seedling phenotype (Arabidopsis seedlings; wild type seedlings on media supplemented with 50 μM) | Km for IAN hydrolysis (NIT1) | indole glucosinolate levels (wild type seedlings) | inhibition of indole-3-acetaldoxime oxidation (CYP83B1 [1]; 17.5 mM tryptamine, 35 μM [5-3H]indole-3-acetaldoxime, 22 nM CYP83B1, 10 min at 28° C., TLC)
ON=CCc1c[nH]c2ccccc12 [indole-3-acetaldoxime] | 53 | 3 | 0.2 | – | – | – | – | – | –
N#CCc1c[nH]c2ccccc12 [IAN, indole-3-acetonitrile] | – | – | – | in the mM range | almost completely inhibiting germination | phenocopy rnt1-1 seedlings | in the mM range | – | –
NCCc1c[nH]c2ccccc12 [tryptamine] | – | – | 24 | – | – | – | – | reduced levels | inhibitor
